Measured values as given in PubChem BioAssay (NCI).
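Cultured in 96-well plates, cells were exposed to test compound for 48 hours across five concentrations. TGI denotes the concentration required for complete inhibition of growth.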

Tests used:
Assay in all cases: NCI-60 cell line screen, 48 h
EKVX NSCLC = system: EKVX NSCLC
HT29 colon = system: HT29 colon
NCI-H226 lung = system: NCI-H226 lung
NCI/ADR-RES ovarian = system: NCI/ADR-RES ovarian
OVCAR-5 ovarian = system: OVCAR-5 ovarian
OVCAR-8 ovarian = system: OVCAR-8 ovarian
SNB-19 CNS = system: SNB-19 CNS
U251 CNS = system: U251 CNS
UACC-257 melanoma = system: UACC-257 melanoma
UACC-62 melanoma = system: UACC-62 melanoma

SMILES | TGI (EKVX NSCLC) [µM] | TGI (HT29 colon) [µM] | TGI (NCI-H226 lung) [µM] | TGI (NCI/ADR-RES ovarian) [µM] | TGI (OVCAR-5 ovarian) [µM] | TGI (OVCAR-8 ovarian) [µM] | TGI (SNB-19 CNS) [µM] | TGI (U251 CNS) [µM] | TGI (UACC-257 melanoma) [µM] | TGI (UACC-62 melanoma) [µM]
CC(=O)Oc1ccc(OC(Oc2ccccc2)c2ccccc2)cc1 (stereo not drawn) | > 100 | 87 | 69.7 | 90.3 | > 100 | > 100 | 77.5 | 35.5 | 64.5 | 44.6
Cc1ccc(S(=O)(=Nc2ccccc2)C(C(C)C)C(C)(C)Cl)cc1 (stereo not drawn) | 47.3 | > 50 | 45.9 | > 50 | > 50 | > 50 | > 50 | > 50 | > 50 | > 50
O=C1c2ccccc2C(=O)N1C(=S)c1ccccc1 | > 100 | > 100 | > 100 | > 100 | > 100 | > 100 | > 100 | > 100 | > 100 | > 100
CCN(CC)C(=S)SNCCc1ccc(S(N)(=O)=O)cc1 | 40 | 27.1 | > 84.7 | 41.6 | 30.4 | 25.2 | 50.9 | 31.8 | 32.9 | > 94.1
O=C(Nc1ccc2ccccc2c1)Nn1cnnc1 | > 100 | > 100 | > 100 | – | > 100 | > 100 | > 100 | > 100 | > 100 | > 100
CCOC(=O)/C=C(/C(=O)OCC)n1c(=O)c(C)cn(C2CC(N=[N+]=[N-])C(CO)O2)c1=O (stereo not drawn) | 94 | > 100 | > 100 | > 100 | > 100 | > 100 | > 100 | 37.4 | 86.1 | > 100
ClCc1c(-c2ccccc2)nn(-c2ccccc2)c1CCl | – | 31.9 | 72.8 | > 100 | 35 | 30.8 | 43 | 27.6 | 34.1 | 21.4
[N-]=[N+]=C1CNC(=O)NC1=O | > 100 | > 100 | > 100 | > 100 | > 100 | > 100 | > 100 | > 100 | > 100 | > 100
Cc1nnc(N)nc1/C=C\c1cccs1 | 55.6 | 41.4 | 49.4 | 76.6 | 68.3 | 44.5 | > 100 | > 100 | > 100 | 49.4
CC1CCC2c3c([nH]c4ccccc34)C3C(=O)N(C4CCCCC4)C(=O)C3C2C1 (stereo not drawn) | 39.6 | > 100 | 36 | > 100 | > 100 | 42.5 | 32 | 25.3 | > 100 | 28.8
